Series [1] has as its target T1, gastrin receptor, guinea pig stomach mucosal membranes (Cavia porcellus, UniProt H0VZC5).
T1 construct: Guinea pig stomach fundus was obtained from male Hartley guinea pigs; from tissue; host or cells: stomach fundus mucosal membranes of male Hartley guinea pigs
T1 sequence (H0VZC5 1-426): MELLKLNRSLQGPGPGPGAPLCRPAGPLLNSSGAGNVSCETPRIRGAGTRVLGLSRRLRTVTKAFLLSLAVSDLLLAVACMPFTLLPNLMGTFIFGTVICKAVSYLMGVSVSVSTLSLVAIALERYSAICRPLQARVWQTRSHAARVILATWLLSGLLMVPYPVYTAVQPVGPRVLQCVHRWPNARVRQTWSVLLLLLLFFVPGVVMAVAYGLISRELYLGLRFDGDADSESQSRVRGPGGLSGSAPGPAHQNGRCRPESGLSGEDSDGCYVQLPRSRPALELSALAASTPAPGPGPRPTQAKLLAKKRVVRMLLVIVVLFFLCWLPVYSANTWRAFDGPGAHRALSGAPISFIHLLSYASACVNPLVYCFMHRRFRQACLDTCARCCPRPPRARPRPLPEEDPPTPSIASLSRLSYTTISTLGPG
Briefly: Gastrin binding to guinea pig stomach mucosal membranes (displacement of 125I-gastrin I). The conditions noted are these: guinea pig gastric mucosa. As for the experimental part: (§1) Test Procedures for CCK and Gastrin Receptor Binding (IC50)
The method used for gastrin binding to guinea pig stomach mucosal membranes was similar to that described by Takeuchi, Speir and Johnson (Am. J. Physiol. 237(3): E284-E294, 1979). Guinea pig stomach fundus was obtained from male Hartley guinea pigs, 300-350 g, and the mucosa was scraped off with a glass slide. The mucosa was homogenized in 50 mM Tris buffer, pH 7.4, containing 1 mM phenylmethanesulfonyl fluoride using a Dounce glass homogenizer, and the suspension was centrifuged at 40,000 g for 10 min. The resulting pellet was resuspended and centrifuged once more, the final pellet was then suspended in 100 ml assay buffer per 1 guinea pig stomach to give a protein concentration of 200-300 μg/200 μl. The assay buffer consisted of 50 mM Tris buffer, pH 7.4, 5 mM MgCl2, 0.14 mg/ml bacitracin, and 1 μg/ml each of leupeptin, chymostatin, aprotinin and pepstatin. Reagent volumes for the assay were the same as those used for CCK binding to brain membranes. […] The samples were incubated 3 hours at room temperature and filtered and counted as described for CCK binding to brain membranes. Compound samples were prepared and IC-50 values were determined as described for the CCK-brain receptor binding. Non-specific binding was determined using 100 nM gastrin I (human synthetic from Sigma Chemical Co.). […]
For orientation: Displacement assays read how much labelled ligand stays bound in the presence of the test substance.

For series [2], the target named is T2, CCK receptor, mouse brain membranes (Mus musculus, UniProt P56481).
T2 construct: from tissue; host or cells: forebrain membranes of male CF-1 mice
T2 sequence (P56481 1-453): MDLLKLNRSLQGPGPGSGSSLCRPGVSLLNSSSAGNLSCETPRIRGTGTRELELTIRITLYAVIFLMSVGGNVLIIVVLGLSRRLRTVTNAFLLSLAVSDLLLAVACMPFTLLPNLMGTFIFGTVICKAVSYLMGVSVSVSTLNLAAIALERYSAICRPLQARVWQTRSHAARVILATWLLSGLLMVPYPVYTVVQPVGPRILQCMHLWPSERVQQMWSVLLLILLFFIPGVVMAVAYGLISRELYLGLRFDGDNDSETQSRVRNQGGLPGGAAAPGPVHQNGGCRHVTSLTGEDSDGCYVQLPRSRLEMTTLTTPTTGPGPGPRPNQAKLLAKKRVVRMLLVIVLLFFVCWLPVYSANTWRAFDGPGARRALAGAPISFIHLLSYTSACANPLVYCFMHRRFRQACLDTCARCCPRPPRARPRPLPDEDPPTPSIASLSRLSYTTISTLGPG
As to the kind of experiment: Brain CCK receptor binding (displacement of 125I-CCK-8 sulfate, mouse brain membranes). As for the experimental part:
as §1
Brain CCK receptor binding was performed using mouse brain membranes according to the method of Chang and Lotti (Proc. Natl. Acad. Sci. 83: 4923-4926, 1986). Male CF-1 mice, 23-25 g were sacrificed by cervical dislocation, the forebrain removed and placed in ice cold 50 mM Tris buffer, pH 7.4. The tissue was homogenized in 100 volumes of the Tris buffer with a Brinkman Polytron or Tekmar Tissumizer and then centrifuged at 40,000 g for 10 min. Pellets were resuspended in Tris buffer, centrifuged as above and then resuspended in 100 volumes of assay buffer, pH 6.5 (20 mM N-2-hydroxyethyl-piperazine-N'-2-ethane sulfonic acid (HEPES), 1 mM ethylene glycol bis(2-aminoethyl ether-N,N,N',N'-tetraaceticacid) (EGTA), 5 mM MgCl2, 130 mM NaCl, and 0.25 mg/ml bacitracin). The binding assay consisted of 50 μL of compound (or buffer for total binding), 50 μL of ^125 I-CCK-8 sulfate (20 pM) (Amersham IM-159), 200 μL of assay buffer and 200 μL of homogenate (80-120 μg protein). The samples were incubated at room temperature (25°) for 2 hours, and they were then filtered through GF/B glass fiber filters (soaked in wash buffer for 2 hours before use) using a 48 well Brandel cell harvester designed for receptor binding. The filters were washed twice with 3 ml of 50 mM Tris buffer, pH 7.4, containing 0.01% BSA and then counted for radioactivity in plastic tubes with a Micromedic 10/600 automatic gamma counter.
Compounds were dissolved in dimethyl sulfoxide (DMSO) at a concentration of 10 mM and then further diluted with assay buffer. The concentration of DMSO in the incubation was 0.1% or less and had no effect on the assay at that level. IC-50 values of displacement curves were determined using 7 concentrations of compound and were calculated using the ALLFIT computer program of DeLean, Munson and Rodbard (Am. J. Physiol. 235: E97-E102, 1978). Non-specific binding was determined as the displacement of the radioligand by 100 nM CCK-8 sulfate.
Table III below summarizes representative CCK and gastrin-binding tests results for exemplified compounds in accordance with this invention.

Another series in a line: Titration pKa. The settings on record: 2:1 DMF:H2O as solvent. It is filed as physicochemical. An excerpt:
Tetrahydrofuran (THF) was dried by distillation from sodium/benzophenone.

The target of series [3] is T3, peripheral type CCK receptors in rat pancreas (Rattus norvegicus, UniProt P30551).
T3 construct: Pancreas was obtained from male Sprague-Dawley rats; from tissue; host or cells: pancreas membranes of male Sprague-Dawley rats
T3 sequence (P30551 1-444): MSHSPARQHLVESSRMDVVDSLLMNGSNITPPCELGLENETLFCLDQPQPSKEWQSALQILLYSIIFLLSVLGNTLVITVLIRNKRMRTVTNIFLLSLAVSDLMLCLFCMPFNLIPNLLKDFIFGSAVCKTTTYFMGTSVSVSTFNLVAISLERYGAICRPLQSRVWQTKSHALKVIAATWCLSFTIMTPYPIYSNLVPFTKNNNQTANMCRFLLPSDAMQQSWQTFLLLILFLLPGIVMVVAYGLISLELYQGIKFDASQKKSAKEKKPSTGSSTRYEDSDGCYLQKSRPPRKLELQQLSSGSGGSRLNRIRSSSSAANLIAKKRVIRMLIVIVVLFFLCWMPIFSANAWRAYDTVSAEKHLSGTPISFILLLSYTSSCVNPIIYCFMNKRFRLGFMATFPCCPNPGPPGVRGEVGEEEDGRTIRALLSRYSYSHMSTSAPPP
As to the kind of experiment: Binding to peripheral type CCK receptors in rat pancreas (displacement of 3H-L-364,718). The settings on record: read-out: Pancreas CCK receptor binding, Percent Inhibition at 10 μM. The method, then:
as §1
Binding to peripheral type CCK receptors in rat pancreas was done according to the method of Chang et al. (Mol. Pharmacol. 30: 212-217, 1986) using ^3 H-L364, 718. Pancreas was obtained from male Sprague-Dawley rats, 150-200 g, after decapitation, and dissected free from adipose and connective tissue. The tissue was homogenized in 30 volumes of 50 mM Tris buffer, pH 7.4 and centrifuged at 40,000 g for 10 min. The tissue pellet was washed by resuspension and centrifugation as described above. The final pellet was suspended in 500 volumes of assay buffer (50 mM Tris buffer, pH 7.4, 5 mM MgCl2, 0.14 mg/ml bacitracin, and 5 mM dithiothreitol) to give a protein concentration of 30-60 μg/200 μl . Reagent volumes for the assay were the same as those used for CCK binding to brain membranes. Tritium labeled L-364,718 (Dupont NEN, NET-971) was used as the ligand at a concentration of 0.4-0.6 nM. The samples were incubated 1 hour at room temperature and then filtered as described for the CCK-brain receptor. Scintillation cocktail was added to the filters which were counted for radioactivity using a Micromedic Taurus automatic liquid scintillation counter.
Compound samples were prepared and IC-50 values were determined as described for the CCK-brain experiments. […]

pIC50: −log10 of the molar value.

In general, pIC50 refers to −log10 of the IC50, conventionally taken in molar units. By inhibition is commonly meant the relative decrease from the control value, in per cent.

On to `O=C1NN(C(=O)Nc2ccc3ccccc3c2)[C@@H](c2ccccc2)[C@@H]1c1ccccc1` (relative stereo) [Example 91], for which the negative-log IC50 (pIC50) is 7.21 in series [1] and 8.00 in series [2].

As to “1-[(4-Bromophenyl)aminocarbonyl]-2-carboxymethyl-4,5-diphenyl-3-pyrazolidinone and 1-[(4-bromophenyl)aminocarbonyl]-3-carboxymethoxy-4,5-diphenyl-2-pyrazoline [Example 12]”, in the series “Titration pKa”, the “titration pKa” value came to 4.8.

Compound `O=C(O)CN1C(=O)[C@H](c2ccccc2)[C@@H](c2ccccc2)N1C(=O)Nc1ccc(Br)cc1` (relative stereo) [Example 12 (N-), 1-[(4-Bromophenyl)aminocarbonyl]-2-carboxymethyl-4,5-diphenyl-3-pyrazolidinone] had a pIC50 in series [2] of 6.00.

For `O=C1NN(C(=O)Cc2ccc(C(F)(F)F)cc2)[C@@H](c2ccccc2)[C@@H]1c1ccccc1` (relative stereo) [Example 77], the inhibition at 10 µM in series [3] was 4%.

In the case of “1-[(4-Bromophenyl)aminocarbonyl]-2-(O-t-butyl-carboxymethyl)-4,5-diphenyl-3-pyrazolidinone and 1-[(4-bromophenyl)aminocarbonyl]-3-(O-t-butylcarboxymethoxy)-4,5-diphenyl- 2-pyrazoline [Example 11]”, in series [2] (at 10 μM), the “Brain CCK receptor binding, Percent Inhibition at 10 μM” value turned out to be 67%.

With `O=C1NN(c2nc3c(Cl)c(Cl)ccc3s2)[C@@H](c2ccccc2)[C@@H]1c1ccccc1` (relative stereo) [Example 86], the pIC50 in series [2] was 5.96.

As to `O=C1NN(C(=O)Nc2ccc(C(F)(F)F)cc2)C(c2ccccc2Cl)C1c1ccccc1` (centres unmarked) [Example 110], the inhibition at 10 µM in series [3] turned out to be 47%.

Values taken from patent publication US5643926A, “Pyrazolidinone CCK and gastrin antagonists and pharmaceutical formulations thereof” (priority 1994, dated 1997).
